Source: the METLIN SMRT retention time set (Domingo-Almenara et al. 2019)

Assay: gradient 5% acetonitrile 3 min, to 50% in 2 min, to 85% in 15 min, held 3 min, 100 µL/min
Details: column: Zorbax Extend-C18 2.1 x 50 mm; eluents: water / acetonitrile, 0.1% formic acid
How it was run: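 Mixtures of ~100 pure standards were chromatographed on a Zorbax Extend-C18 column (2.1 × 50 mm, 1.8 μm) at 100 μL/min using water and acetonitrile, each with 0.1% formic acid. Detection used a quadrupole time-of-flight mass spectrometer in positive and negative ionization mode, and data collection spanned 3 months. Retention time was obtained from adduct peaks picked computationally and each checked manually.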

First: CCCN(C(C)=O)c1nc(-c2ccc(Br)cc2)cs1
Second: CCOc1ccc(-c2csc(Cc3nc(-c4cccc(C)c4)no3)n2)cc1
The RP-LC retention time of the first is lower: 1240 s for the first, 1310 s for the second.

Compared with O=C([C@@H]1C[C@H](F)CN1C(=O)c1cccc(Br)c1)N1CCCCC1, O=C([C@@H]1C[C@H](F)CN1C(=O)NCc1ccc(OC(F)(F)F)cc1)N1CCCCC1 is higher in RP-LC retention time: 742 s for the first, 809 s for the second.

Going from CC(C)CCN(Cc1ccco1)C(=O)Cn1nc2n(c1=O)CCC(N)CC2 (centres undefined) to CO[C@H]1C(=O)N(C(C)C)[C@H]1C1CCN(C(=O)CCn2cc(C)cn2)CC1, the RP-LC retention time rises from 633 s to 654 s.

Going from CCc1cc(C(=O)NCC2CCCO2)nc2cc(-c3ccccn3)nn12 (centres undefined) to CCCn1c(C2CCN(C(=O)Nc3cccc(C)c3)C2)nc2cccnc21 (centres undefined), the RP-LC retention time falls from 739 s to 713 s.

First: Cc1ccc(-c2ocnc2C(=O)NCCCN2CCc3ccccc3C2)s1
Second: COc1nn(C)cc1C(=O)NCC(=O)N1CCc2ccccc2C1
The RP-LC retention time of the first is higher: 727 s for the first, 657 s for the second.

Going from CCC(=O)NCc1nc2c(n1CC)CN(C(=O)c1cc(C)cc(C)c1)CC2 to CCCC(NC(=O)c1cc(C)cc(C)c1)C(=O)Nc1nc2ccccc2[nH]1 (centres undefined), the RP-LC retention time rises from 620 s to 751 s.

Compared with COc1ccc2[nH]c3c(c2c1)CCNC31CCN(C(=O)C2CCN2C2CCCCC2)CC1 (centres undefined), O=C(C1CCC(=O)N1S(=O)(=O)c1ccccc1)N1CCN(C2CCCCC2)CC1 (centres undefined) is higher in RP-LC retention time: 576 s for the first, 619 s for the second.

Going from Fc1cccc(-c2noc(Cc3nnc(-c4ccccc4)o3)n2)c1 to COc1cccc(-c2nnc(Cc3nc(-c4cccc(F)c4)no3)o2)c1, the RP-LC retention time rises from 974 s to 991 s.

First: Cc1ccccc1C(=O)N1C[C@@H](F)C[C@H]1C(=O)N1CCOCC1
Second: CCC(=O)N1CCCC(C(=O)N2CCOCC2)C1 (centres undefined)
The RP-LC retention time of the first is higher: 620 s for the first, 564 s for the second.

Going from COc1ccc2c(c1)c(N1CCCC1=O)c(C(=O)NCCc1ccc(OC)c(OC)c1OC)n2C to COc1ccc(OC)c(CNC(=O)c2nnc(-c3ccc(S(=O)(=O)N4CCOCC4)cc3)o2)c1, the RP-LC retention time falls from 858 s to 826 s.

Going from COc1ccc(-n2c(=O)n(C)c(=O)c3cc(C(=O)Nc4cc(F)cc(F)c4)cnc32)cc1 to COc1ccc(C(=O)Nc2nc(-c3ccc4c(c3)N(C)C(=O)C(C)O4)cs2)cc1 (centres undefined), the RP-LC retention time rises from 970 s to 984 s.

O=C(CN1CCCCC1c1nc(-c2ccc(F)cc2)no1)NCc1ccc(F)cc1 (centres undefined) and Cc1ccccc1-c1noc(C2CCCN2C(=O)Nc2cc(F)ccc2F)n1 (centres undefined) are the same in RP-LC retention time: 1080 s for the first, 1080 s for the second.

First: O=C(NCC1CCCCC1)C1CCN(C(=O)c2cc3ccsc3n2Cc2ccc(Cl)cc2)CC1
Second: O=C(Nc1ccc(F)c(Cl)c1)C1CCN(C(=O)NCc2cccs2)CC1
The RP-LC retention time of the first is higher: 1170 s for the first, 764 s for the second.

Compared with CCCNC(=O)C1CCN(c2ccc(SCC(=O)Nc3ccc(Cl)cc3)nn2)CC1, CCCCc1ccc(NC(=O)NC2CCN(c3cc(N4CCCC4)cnn3)C2)cc1 (centres undefined) is higher in RP-LC retention time: 655 s for the first, 814 s for the second.

Going from COc1cc(NC(=O)Cc2cn3cc(Cl)ccc3n2)c(OC)cc1Cl to COc1ccc(OC)c(NC(=O)C2Oc3ccccc3NC2=O)c1 (centres undefined), the RP-LC retention time rises from 675 s to 773 s.

Going from CCOc1ccccc1NC(=O)C(=O)Nc1ccc([N+](=O)[O-])cc1 to Nc1ccc(C(=O)Oc2ccc([N+](=O)[O-])cc2)cc1, the RP-LC retention time falls from 1060 s to 926 s.

Compared with COc1ccc(S(=O)(=O)Nc2ccc(-c3cn4ccc(C)nc4n3)cc2)c(C)c1C, Cc1ccc(-c2noc(CCn3nc(-c4ccc(C)c(C)c4)ccc3=O)n2)cc1 is higher in RP-LC retention time: 715 s for the first, 1150 s for the second.

Going from CC(CCc1ccccc1)NC(=O)C(=O)NC1CCCC1 (centres undefined) to O=C(Cn1c(=O)n(-c2ccccc2)c2ncccc21)NC1CCCCCC1, the RP-LC retention time falls from 925 s to 845 s.

Compared with CC(C)(C)NCC(O)c1ccccc1Cl (centres undefined), CCOc1ccc2c(n1)CCN(C(=O)Nc1ccccc1OCC)C2 is higher in RP-LC retention time: 650 s for the first, 973 s for the second.

Compared with Cc1ccc(S(=O)(=O)N2CCc3c(c(-c4nnc(-c5ccccc5F)o4)nn3C)C2)cc1C, Cn1nc(-c2nnc(-c3ccc(F)cc3)o2)c2c1CCN(S(=O)(=O)Cc1ccccc1)C2 is higher in RP-LC retention time: 988 s for the first, 999 s for the second.

Going from Cc1ccc(CNC(=O)CCc2nnc3c4cc(-c5ccccc5)nn4ccn23)cc1C to Cc1nn(CC(=O)NCCCN(C)C)c(=O)c2nc(-c3ccccc3)sc12, the RP-LC retention time falls from 815 s to 604 s.

Going from Cn1c(NC(=O)c2ccc(N3C(=O)CCC3=O)cc2)cc(=O)n(C)c1=O to COc1cccc(C(=O)NC2CCN(c3ccc(C)c(C)c3)C2=O)c1 (centres undefined), the RP-LC retention time rises from 565 s to 869 s.

Compared with O=C(Cn1ccn(-c2ccc3c(c2)OCCO3)c(=O)c1=O)Nc1ccccc1F, COc1ccccc1CN1C[C@@H]2C(=O)N(Cc3ccc4c(c3)OCO4)C(=O)[C@@H]2C1 is higher in RP-LC retention time: 655 s for the first, 724 s for the second.

Going from CCc1cccc(NC(=O)C2CCN(C(=O)C3Sc4ccccc4NC3=O)CC2)c1 (centres undefined) to O=C(Nc1ccc(F)cc1)C1CCCN(C(=O)c2ccc(F)c(F)c2)C1 (centres undefined), the RP-LC retention time rises from 762 s to 860 s.

Compared with O=C(c1cnccn1)N1CCCn2nc(-c3ccc(Cl)cc3)cc2C1, O=C(c1cccnc1)N1CCc2cc(-c3ccno3)ccc21 is lower in RP-LC retention time: 788 s for the first, 683 s for the second.

Going from O=C(O)c1ccc(N2CCCCC2)cc1O to Cc1ccc2c(=O)c(C(=O)N3CCCC3)cn(CC(=O)NC3CCCCC3)c2n1, the RP-LC retention time falls from 828 s to 676 s.

First: C[C@]12CC[C@H](O)CC1=CC[C@@H]1[C@@H]2CC[C@]2(C)c3[nH]ncc3C[C@@H]12
Second: Cc1cc(C)cc(N2C(=O)N(CC(=O)N3CCC(C)CC3)C3CS(=O)(=O)CC32)c1 (centres undefined)
The RP-LC retention time of the first is lower: 796 s for the first, 816 s for the second.

First: Cc1cccc(-c2noc(C3CCCN3S(=O)(=O)c3ccc(F)c(Cl)c3)n2)c1 (centres undefined)
Second: Cc1noc(C)c1-c1ccc(S(=O)(=O)N2CCN(c3cccc(Cl)c3)CC2)cc1
The RP-LC retention time of the first is higher: 1220 s for the first, 1160 s for the second.

First: O=C(c1ccc(Br)o1)N1CCC(c2nnc(-c3ccco3)s2)CC1
Second: Cc1ccc(-c2cc(C(=O)N3CCC(NC(=O)c4cccs4)CC3)[nH]n2)c(C)c1
The RP-LC retention time of the first is higher: 765 s for the first, 763 s for the second.

Going from Cc1ccc(Nc2c(-c3ccccc3O)nc3ncccn23)c(C)c1 to Cc1ccc(-c2nnc(SCC(=O)Nc3ccc(C)cc3Br)o2)cc1, the RP-LC retention time rises from 744 s to 830 s.

First: Cc1cc(C(=O)NCCn2ncc3c(=O)n(Cc4ccc(F)cc4)cnc32)c(C)o1
Second: O=c1c2nnn(Cc3ccc(Cl)cc3)c2ncn1Cc1nc(-c2ccc3c(c2)OCO3)no1
The RP-LC retention time of the first is lower: 705 s for the first, 982 s for the second.

Going from Fc1cccc(Cl)c1CN1CC(c2nc(C3CC3)no2)C1 to Cc1noc(C)c1CC(=O)N1CC(c2nc(-c3cccs3)no2)C1, the RP-LC retention time rises from 564 s to 690 s.

Compared with Cc1cccc(-c2nnc3ccc(Cl)nn23)c1, Cc1ccc(N2CC(c3nc(-c4ccc5c(c4)ncn5C)no3)CC2=O)cc1 (centres undefined) is lower in RP-LC retention time: 823 s for the first, 664 s for the second.

Compared with COC(=O)C1=C(C)NC(=O)NC1c1cn(-c2ccccc2)nc1-c1ccc(F)cc1 (centres undefined), COc1cccc(-n2c(N3CCCC(C(=O)Nc4ccc(Cl)cc4)C3)nc3ccsc3c2=O)c1 (centres undefined) is higher in RP-LC retention time: 857 s for the first, 1020 s for the second.

Going from COc1ccc(C(=O)N2CCC3(CC2)NC(=O)c2ccc(Cl)cc2N3)c(C)c1 to COc1cc2ncc(C(=O)c3ccccc3)c(N3CCN(C)CC3)c2cc1OC, the RP-LC retention time falls from 800 s to 556 s.

Compared with COc1cccc(-c2cc(=O)c3ccccc3o2)c1N, CCCCc1ccc(N2C(=O)CC(c3ccc(OC)c(OC)c3)CC2=O)cc1 is higher in RP-LC retention time: 948 s for the first, 1040 s for the second.

Compared with CC(C)NC(=O)N1CCc2c(c(-c3nc(-c4cccc(F)c4)no3)nn2C)C1, CC(C)CN1CCN(C(=O)c2cn3ccnc(-c4ccccc4)c3n2)CC1 is lower in RP-LC retention time: 853 s for the first, 606 s for the second.

First: O=C(Nc1nccs1)c1cc2cc([N+](=O)[O-])ccc2s1
Second: O=C(Nc1nc(-c2ccc(-c3ccccc3)cc2)cs1)c1cccnc1
The RP-LC retention time of the first is lower: 821 s for the first, 1030 s for the second.

Compared with CCCN1C(=O)CN(S(=O)(=O)c2ccc(C)cc2)CC1(C)C(=O)NCc1ccccc1 (centres undefined), CC1CS(=O)(=O)N(c2ccc(S(=O)(=O)Nc3ccccc3C(F)(F)F)cc2)C1=O (centres undefined) is lower in RP-LC retention time: 864 s for the first, 819 s for the second.

Compared with COc1cccc(Cn2c(N3CCSCC3)nc(C)cc2=O)c1, COCCN1CCn2cc(S(=O)(=O)Nc3ccc(OC)c(Cl)c3)cc2C1=O is lower in RP-LC retention time: 869 s for the first, 726 s for the second.

Going from O=C(CC1CCN(C(=O)C2CCCCC2)CC1)NCCCN1CCCC1 to CS(=O)(=O)N1CCC(OC2CCN(C(=O)Nc3cccc(C(F)(F)F)c3)CC2)CC1, the RP-LC retention time rises from 595 s to 846 s.

Compared with O=C(NCc1ccc2c(c1)OCO2)c1ccc2c(c1)N(CC(=O)N1CCCC1)C(=O)CO2, CC(=O)N1c2ccc(S(=O)(=O)N3CCCC3C(=O)NCc3ccc4c(c3)OCO4)cc2CC1C (centres undefined) is higher in RP-LC retention time: 674 s for the first, 779 s for the second.

First: NC1=C(Br)C(=O)c2ncccc2C1=O
Second: Cn1c(=O)c(N2CCN(C(=O)c3cc(F)cc(F)c3)CC2)nc2cccnc21
The RP-LC retention time of the first is lower: 599 s for the first, 860 s for the second.

Going from CN(C)C[C@@H]1CN(c2ccncn2)C[C@H]1NC(=O)c1ccc2ncccc2c1 to O=C(Nc1ccc2c(c1)CN(S(=O)(=O)c1cccnc1)CCO2)C1CC1, the RP-LC retention time rises from 652 s to 712 s.

In the case of CCOC(=O)c1cnc2nc(C)ccc2c1Nc1ccc2c(c1)OCO2, the RP-LC retention time is reported as 680 s.
